From ChEMBL document CHEMBL1135832, “Syntheses, calcium channel agonist-antagonist modulation activities, nitric oxide release, and voltage-clamp studies of 2-nitrooxyethyl 1,4-dihydro- 2,6-dimethyl-3-nitro-4-(2-trifluoromethylphenyl)pyridine-5-carboxylate enantiomers” (J Med Chem, 2002)

Experiments:
Format in all cases: functional
Cavia porcellus [1] = organism: Cavia porcellus; assay: In vitro NO ([…]) release by nitrite quanititation using Griess reaction
Cavia porcellus [2] = organism: Cavia porcellus; assay: In vitro calcium channel modulating activity in guinea pig left atrium (GPLA); conditions: Cardiac atrium
Cavia porcellus [3] = organism: Cavia porcellus; assay: In vitro NO ([…]) release by nitrite quanititation using Griess reaction in presence of N-acetyl-cysteamine
Cavia porcellus [4] = organism: Cavia porcellus; assay: In vitro NO ([…]) release by nitrite quanititation using Griess reaction without N-acetyl-cysteamine

Row | SMILES | % of NO release (Cavia porcellus [1]) | IC50 (Cavia porcellus [2]) [µM] | % of NO release (Cavia porcellus [3]) | % of NO release (Cavia porcellus [4])
1 | CC1=NC(C)=C([N+](=O)[O-])[C@@H](c2ccccc2C(F)(F)F)/C1=C(\O)OCCO[N+](=O)[O-] | 1.09 | – | – | –
2 | CC1=NC(C)=C([N+](=O)[O-])[C@H](c2ccccc2C(F)(F)F)/C1=C(\O)OCCO[N+](=O)[O-] | 2.7 | 16 | – | –
3 | O=[N+]([O-])OCC(CO[N+](=O)[O-])O[N+](=O)[O-] [NITROGLYCERIN] | – | – | 5.3 | 0.18
